The source of these data is PMC9204419, “A Toolbox for the Generation of Chemical Probes for Baculovirus IAP Repeat Containing Proteins” (Frontiers in Cell and Developmental Biology, 2022).

The target of assay [1] is T1, BIRC8 BIR (Homo sapiens, UniProt Q96P09).
T1 sequence (Q96P09 1-90): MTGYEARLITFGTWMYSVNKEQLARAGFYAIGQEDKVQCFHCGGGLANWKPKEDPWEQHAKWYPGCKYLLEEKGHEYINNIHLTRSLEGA
Description: NanoBRET cellular target engagement, single domain BIRC8 BIR. (In general: Bioluminescence resonance energy transfer reports proximity on the nanometre scale.)
Description: (§1) In brief: Constructs contained the cDNA of full-length or single domains cloned in frame with an N-terminal NanoLuc-fusion as specified in Supplementary Table S2. Plasmids were transfected into HEK293T cells using FuGENE HD (Promega, E2312) and proteins were allowed to express for 20 h. […] The corresponding transfected cells were added and reseeded at a density of 2.5^5 cells/mL after trypsinization and resuspending in Opti-MEM without phenol red (Life Technologies). […] Competitive displacement data were then graphed using GraphPad Prism 9.3 software using a normalized 3-parameter curve fit with the following equation: Y = 100/(1 + 10^(X-LogIC50)).

In assay [2] the target is BIRC3 (Homo sapiens, UniProt Q13489). The assay is described as follows: NanoBRET cellular target engagement, full-length BIRC3.
BIRC3, sequence (Q13489 whole entry, the tested form may be a part): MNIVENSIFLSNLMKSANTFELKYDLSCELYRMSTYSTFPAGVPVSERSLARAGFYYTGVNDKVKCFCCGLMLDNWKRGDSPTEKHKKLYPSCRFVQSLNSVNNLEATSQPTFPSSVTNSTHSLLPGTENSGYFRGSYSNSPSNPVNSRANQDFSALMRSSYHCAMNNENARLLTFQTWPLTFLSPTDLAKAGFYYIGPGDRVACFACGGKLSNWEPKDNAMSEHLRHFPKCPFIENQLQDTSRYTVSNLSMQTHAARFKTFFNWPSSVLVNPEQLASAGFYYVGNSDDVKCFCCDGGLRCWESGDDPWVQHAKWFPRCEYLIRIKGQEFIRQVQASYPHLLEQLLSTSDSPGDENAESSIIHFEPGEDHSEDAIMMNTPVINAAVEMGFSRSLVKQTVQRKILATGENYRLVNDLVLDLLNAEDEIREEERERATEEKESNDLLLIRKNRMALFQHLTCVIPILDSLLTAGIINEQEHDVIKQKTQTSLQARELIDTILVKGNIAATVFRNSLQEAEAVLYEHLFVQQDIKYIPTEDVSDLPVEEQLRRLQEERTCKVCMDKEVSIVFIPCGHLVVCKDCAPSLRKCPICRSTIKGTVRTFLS
Description: as §1
In assay [3] the target is BIRC3 BIR3 (Homo sapiens, UniProt Q13489). The assay is described as follows: NanoBRET cellular target engagement, single domain BIRC3 BIR3.
BIRC3 BIR3, sequence (Q13489 236-360): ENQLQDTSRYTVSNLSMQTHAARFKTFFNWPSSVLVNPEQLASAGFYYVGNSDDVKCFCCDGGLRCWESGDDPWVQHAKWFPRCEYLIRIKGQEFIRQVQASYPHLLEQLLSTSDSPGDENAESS
Description: as §1
For assay [4], the target named is T2, BIRC8 (Homo sapiens, UniProt Q96P09).
T2 sequence (Q96P09 1-236): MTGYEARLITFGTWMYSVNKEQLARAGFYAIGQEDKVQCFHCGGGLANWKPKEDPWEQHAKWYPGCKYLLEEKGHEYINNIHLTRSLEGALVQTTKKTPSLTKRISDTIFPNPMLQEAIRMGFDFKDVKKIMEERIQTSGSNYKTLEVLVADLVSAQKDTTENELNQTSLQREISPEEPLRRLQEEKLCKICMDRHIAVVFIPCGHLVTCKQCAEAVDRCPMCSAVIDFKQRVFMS
The assay is described as follows: NanoBRET cellular target engagement, full-length BIRC8.
Description: as §1

In assay [5] the target is BIRC4 (Homo sapiens, UniProt P98170). The assay is described as follows: NanoBRET cellular target engagement, full-length BIRC4.
BIRC4, sequence (P98170 whole entry, the tested form may be a part): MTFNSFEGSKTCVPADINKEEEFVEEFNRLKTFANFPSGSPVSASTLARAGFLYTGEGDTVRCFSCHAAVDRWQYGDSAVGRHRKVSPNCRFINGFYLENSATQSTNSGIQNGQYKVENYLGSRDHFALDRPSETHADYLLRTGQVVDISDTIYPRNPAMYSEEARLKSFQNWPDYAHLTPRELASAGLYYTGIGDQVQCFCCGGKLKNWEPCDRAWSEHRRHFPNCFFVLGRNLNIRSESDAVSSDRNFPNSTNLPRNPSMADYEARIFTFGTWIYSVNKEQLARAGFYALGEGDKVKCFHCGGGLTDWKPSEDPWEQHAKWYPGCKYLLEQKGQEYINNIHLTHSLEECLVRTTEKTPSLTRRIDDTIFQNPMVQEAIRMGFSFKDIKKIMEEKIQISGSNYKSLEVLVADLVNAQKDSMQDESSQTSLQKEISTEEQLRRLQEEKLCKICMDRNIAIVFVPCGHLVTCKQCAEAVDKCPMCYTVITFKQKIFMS
Description: as §1
Assay [6] deals with T3, BIRC2-BIR3 domain (Homo sapiens, UniProt Q13490). The assay is described as follows: Differential scanning fluorimetry (DSF). The settings on record: for ΔTm at 40 µM: read-out: DSF Assay ΔTm; for ΔTm [°C] (Supplementary Table S1): technical replicate; for Mean, ΔTm [°C] (Supplementary Table S1): mean of n=3, difference to DMSO control. For orientation: In DSF a fluorescence change marks the thermal transition of the protein.
T3 sequence (Q13490 260-352): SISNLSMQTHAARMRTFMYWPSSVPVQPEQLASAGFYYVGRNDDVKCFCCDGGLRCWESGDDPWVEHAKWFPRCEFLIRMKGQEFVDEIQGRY
Description: Purified proteins were buffered in DSF buffer (25 mM HEPES pH 7.5, 500 mM NaCl) and were assayed in a 384-well plate (Thermo, #BC3384) with a final protein concentration of 20 μM in 10 μL final assay volume. Inhibitors were added in excess to a final concentration of 40 μM, using an ECHO 550 acoustic dispenser (Labcyte). As a fluorescent probe, SYPRO-Orange (Molecular Probes) was used at 5x final concentration. […] Data was analyzed using Boltzmann-equation in the Protein Thermal Shift software (Applied Biosystems). Samples were measured in technical triplicates.
The assay was run in the presence of DMSO to exclude DMSO influences towards melting temperature differences when testing small molecules (Figures 2C,D).

The target of assay [7] is T4, BIRC7 BIR (Homo sapiens, UniProt Q96CA5).
T4 sequence (Q96CA5 70-176): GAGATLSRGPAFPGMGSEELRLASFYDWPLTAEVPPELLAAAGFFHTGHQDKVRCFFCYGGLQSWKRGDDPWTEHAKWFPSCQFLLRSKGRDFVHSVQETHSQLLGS
The assay is described as follows: NanoBRET cellular target engagement, single domain BIRC7 BIR.
Description: as §1

Assay [8] concerns the target T5, BIRC7 (Homo sapiens, UniProt Q96CA5).
T5 sequence (Q96CA5 1-298): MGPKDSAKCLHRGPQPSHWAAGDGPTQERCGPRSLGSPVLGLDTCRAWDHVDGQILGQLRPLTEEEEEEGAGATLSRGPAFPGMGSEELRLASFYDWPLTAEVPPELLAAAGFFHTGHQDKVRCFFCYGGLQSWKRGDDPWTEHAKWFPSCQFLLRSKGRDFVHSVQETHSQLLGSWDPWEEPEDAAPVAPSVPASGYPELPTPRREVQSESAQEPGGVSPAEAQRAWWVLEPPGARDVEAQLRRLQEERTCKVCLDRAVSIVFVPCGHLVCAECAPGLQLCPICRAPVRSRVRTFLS
Description: NanoBRET cellular target engagement, full-length BIRC7.
Description: as §1

Assay [9] concerns the target BIRC3 BIR2 (Homo sapiens, UniProt Q13489). The assay is described as follows: NanoBRET cellular target engagement, single domain BIRC3 BIR2.
Description: as §1
The target in assay [10] is T6, BIRC1 BIR[2] (Homo sapiens, UniProt Q13075).
T6 sequence (Q13075 139-251): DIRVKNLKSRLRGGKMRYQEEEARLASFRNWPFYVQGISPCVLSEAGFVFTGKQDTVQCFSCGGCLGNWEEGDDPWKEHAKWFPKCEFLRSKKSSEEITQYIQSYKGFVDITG
Description: NanoBRET cellular target engagement, single domain BIRC1 BIR[2].
Description: as §1

In assay [11] the target is BIRC2 BIR2 (Homo sapiens, UniProt Q13490). The assay is described as follows: NanoBRET cellular target engagement, single domain BIRC2 BIR2.
BIRC2 BIR2, sequence (Q13490 165-267): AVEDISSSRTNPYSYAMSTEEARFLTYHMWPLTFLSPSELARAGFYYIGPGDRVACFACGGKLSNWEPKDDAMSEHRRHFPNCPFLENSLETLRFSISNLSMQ
Description: as §1
For assay [12], the target named is T3, BIRC2-BIR3 domain. The assay is described as follows: Isothermal titration calorimetry (ITC). Format: binding. On the set-up: BIRC2-BIR3 domain (260–352) was expressed; His6 (N, cleaved yes); GST (N, cleaved yes); made in house; host or cells: E. coli. The method, then: For this protocol, the chamber was pre-equilibrated with the test compound, and the BIRC2-BIR3 domain was titrated in while continuously measuring the rate of exothermic heat evolution. The heat of binding was integrated, corrected, and fitted to an independent single-binding site model based on the manufacturer’s instructions, from which thermodynamic parameters (ΔH and TΔS), equilibrium association and dissociation constants (K A and K D, respectively), and stoichiometry (n) were calculated.
(In general: In ITC the heat of successive injections is recorded.)

Assay [13] concerns the target BIRC2 BIR3 (Homo sapiens, UniProt Q13490). The assay is described as follows: NanoBRET cellular target engagement, single domain BIRC2 BIR3.
Description: as §1
Assay [14] concerns the target BIRC2 (Homo sapiens, UniProt Q13490). Description: NanoBRET cellular target engagement, full-length BIRC2.
Description: as §1
Assay [15] deals with T3, BIRC2-BIR3 domain. The assay is described as follows: Fluorescence polarization (FP) competition assay with fluorescent SMAC probe. Format: binding. On the set-up: BIRC2-BIR3 domain (260–352) was expressed; His6 (N, cleaved yes); GST (N, cleaved yes); made in house; host or cells: E. coli. Conditions: for Ki: read-out: FP Assay K I Values. On the procedure: Resulting data was plotted using GraphPad Prism 9.3 software and analyzed using a nonlinear fit to calculate the probe IC50. […] Compounds were titrated from 20 μM to 20 nM using an ECHO 550 acoustic dispenser (Labcyte) incubated for 1 h at room temperature and subsequent read out.
The assay is based on the displacement of a fluorescent SMAC mimetic from the binding site.

The mark [16] stands for this setting: 25°C, duplicates, mean ± SD, read-out: K D Measured in ITC.

“Also recorded” adds a separate entry of the source. Read-outs that look alike come from different tables or passages of the source. Some results are limits rather than exact numbers.

BIRC3 BIR2, sequence (Q13489 147-253): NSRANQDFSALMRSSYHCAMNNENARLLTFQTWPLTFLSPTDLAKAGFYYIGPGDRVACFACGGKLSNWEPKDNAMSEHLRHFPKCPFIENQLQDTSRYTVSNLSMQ
BIRC2 BIR3, sequence (Q13490 251-372): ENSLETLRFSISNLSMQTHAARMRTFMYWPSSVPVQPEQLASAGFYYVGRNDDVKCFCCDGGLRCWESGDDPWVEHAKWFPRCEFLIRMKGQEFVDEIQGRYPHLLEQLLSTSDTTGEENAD
BIRC2, sequence (Q13490 whole entry, the tested form may be a part): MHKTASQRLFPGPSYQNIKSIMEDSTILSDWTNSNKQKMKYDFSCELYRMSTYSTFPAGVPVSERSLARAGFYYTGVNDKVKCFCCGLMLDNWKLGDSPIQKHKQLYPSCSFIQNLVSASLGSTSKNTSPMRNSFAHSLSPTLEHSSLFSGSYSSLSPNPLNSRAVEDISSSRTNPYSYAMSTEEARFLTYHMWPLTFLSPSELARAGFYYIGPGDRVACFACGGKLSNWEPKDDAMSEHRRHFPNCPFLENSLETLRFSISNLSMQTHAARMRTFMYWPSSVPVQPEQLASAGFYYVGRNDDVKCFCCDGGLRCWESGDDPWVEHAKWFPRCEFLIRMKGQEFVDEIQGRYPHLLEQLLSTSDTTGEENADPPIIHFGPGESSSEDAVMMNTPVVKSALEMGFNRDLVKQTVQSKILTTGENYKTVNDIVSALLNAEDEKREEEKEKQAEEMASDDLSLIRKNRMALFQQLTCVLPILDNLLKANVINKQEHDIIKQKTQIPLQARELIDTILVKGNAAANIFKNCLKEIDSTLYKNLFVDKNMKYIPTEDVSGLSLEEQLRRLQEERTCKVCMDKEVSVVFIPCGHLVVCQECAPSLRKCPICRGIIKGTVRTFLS

The EC50 is the concentration needed to bring the measured effect to its halfway point. Broadly, the ΔTm is the shift of the melting midpoint relative to a reference. As to `CN[C@@H](C)C(=O)N[C@H]1CN(C(=O)CC(C)C)CC[C@H]2CC[C@@H](C(=O)NC(c3ccccc3)c3ccccc3)N2C1=O` [AT406], the half-maximal effective concentration (EC50) was determined as 69.6 ± 0.3 nM in assay [1]; 62 ± 8.5 nM in assay [2]; 5.2 ± 1.2 nM in assay [3]; 69.3 ± 21.1 nM in assay [4]; 28.5 ± 5.2 nM in assay [5]; 18 ± 4.5 nM in [7]. Further, the concentration giving a half-maximal response (EC50) in assay [8] worked out at 25.1 ± 5.2 nM; in assay [9], 8135 ± 52.3 nM; in [10] it was 467 ± 21 nM. In assay [6], the thermal shift (ΔTm) at 40 µM was found to be 11.6 ± 0.2 °C. Besides, the “ΔTm [°C] (Supplementary Table S1)” value amounted to 11.8 °C in assay [6] (first column), 11.8 °C in [6] (second column) and 11.4 °C in assay [6] (third column).

In the case of `CN[C@@H](C)C(=O)N[C@H](C(=O)N1CCC[C@H]1c1nc(C(=O)c2ccc(F)cc2)cs1)C1CCCCC1` [LCL161], the concentration giving a half-maximal response (EC50) in assay [1] worked out at 258 ± 42.4 nM; in assay [4], 199 ± 21.4 nM; in assay [7], 28.5 ± 7 nM; in assay [8], 26.4 ± 5.5 nM; in [10], 1490 ± 297 nM.

As to `CN[C@@H](C)C(=O)N[C@H](C(=O)N1CCC[C@H]1C(=O)Nc1snnc1-c1ccccc1)C1CCCCC1` [GDC-0152], the EC50 in assay [1] amounted to 146 ± 3.8 nM; in assay [4], 134 ± 8.4 nM; in [5] it was 15.3 ± 5 nM; in [7], 28.4 ± 2.7 nM; in assay [8] it was 35.5 ± 9.4 nM; in assay [10], 15200 ± 1230 nM.

Turning to `Oc1c(CN2CCCC2)cc(COCc2ccccc2)c2cccnc12` [UC-112], the concentration for a half-maximal effect (EC50) is more than 50000 nM in assay [11] (read-out: EC50 ± SEM NanoBRET BIRC2 BIR2, single domain, HEK293T, n = 4); more than 50000 nM in [1] (read-out: EC50 ± SEM NanoBRET BIRC8 BIR, single domain, HEK293T, n = 4); more than 50000 nM in [2] (read-out: EC50 ± SEM NanoBRET BIRC3, full-length, HEK293T, n = 4); more than 50000 nM in [3] (read-out: EC50 ± SEM NanoBRET BIRC3 BIR3, single domain, HEK293T, n = 4); more than 50000 nM in assay [4] (read-out: EC50 ± SEM NanoBRET BIRC8, full-length, HEK293T, n = 4); more than 50000 nM in assay [5] (read-out: EC50 ± SEM NanoBRET BIRC4, full-length, HEK293T, n = 4). For the same compound, the 50% effective concentration (EC50) was more than 50000 nM in [7] (read-out: EC50 ± SEM NanoBRET BIRC7 BIR, single domain, HEK293T, n = 4); more than 50000 nM in [8] (read-out: EC50 ± SEM NanoBRET BIRC7, full-length, HEK293T, n = 4); more than 50000 nM in assay [9] (read-out: EC50 ± SEM NanoBRET BIRC3 BIR2, single domain, HEK293T, n = 4); more than 50000 nM in assay [13] (read-out: EC50 ± SEM NanoBRET BIRC2 BIR3, single domain, HEK293T, n = 4); more than 50000 nM in [10] (read-out: EC50 ± SEM NanoBRET BIRC1 BIR[2], single domain, HEK293T, n = 4); more than 50000 nM in assay [14] (read-out: EC50 ± SEM NanoBRET BIRC2, full-length, HEK293T, n = 4). For the same compound, the “K D Measured in ITC” value in [12] (25°C, duplicates, mean ± SD) is “no binding”. The “Mean, ΔTm [°C] (Supplementary Table S1)” value in [6] is 0.3 °C. For the same compound, the entries for the “ΔTm [°C] (Supplementary Table S1)” value in assay [6] (first column), in assay [6] (second column) and in assay [6] (third column) were 0.4 °C, 0.3 °C and 0.2 °C, respectively. In addition, the “FP Assay K I Values” in [15] (BIRC2 BIR3 domain, Cheng-Prusoff from IC50, mean ± SD, n = 3) is listed as “binding could not be shown; also recorded: no interaction at all”.

As usually defined, the IC50 is the concentration that gives 50% inhibition. As for `CN[C@@H](C)C(=O)N[C@H](C(=O)N1CCC[C@H]1C(=O)N[C@@H]1CCCc2ccccc21)C1CCCCC1` [A 410099.1], the concentration for a half-maximal effect (EC50) in assay [11] was 333 ± 35.4 nM; in assay [1], 108 ± 7.5 nM; in assay [2], 9.2 ± 1 nM; in [3], 1.5 ± 0.2 nM; in [4] it was 93.9 ± 9.3 nM; in assay [7], 17 ± 2.4 nM. Further, the EC50 in assay [8] came to 19.9 ± 2.6 nM; in [9] it was 681 ± 68 nM; in assay [13], 0.4 ± 0.2 nM; in [10], 1230 ± 325 nM; in assay [14], 4.6 ± 0.2 nM. For the same compound, the “ITC ΔG” value in assay [12] (25°C) is listed as -10.04 kcal/mol. Also, the “ITC ΔH” value in assay [12] (25°C) is -8.23 kcal/mol. The Kd was found to be 37.5 ± 6.1 nM in assay [12] (setting [16]) and 43.6 nM in [12] (25°C, exemplary titration, read-out: ITC KD (Figure 2E,F)). The compound further displayed an ITC stoichiometry n in assay [12] (exemplary titration, Figure 2E,F) of 1.074. For the same compound, in assay [13] (NanoBRET, single BIR3 domain vs full-length), the “gain in potency on single BIR3 domain compared to full-length protein” value is listed as “about 10 fold”. Further, the IC50 in assay [15] (BIRC2 BIR3 domain, 5 nM probe, 30 nM protein, approximations, read-out: FP assay IC50 (estimated)) was 5.4 nM. Besides, in assay [15], the Ki was determined as 2 ± 1.1 nM.

For the compound `CC[C@H](NC(=O)[C@H](C)NC)C(=O)N1C[C@@H](O)C[C@H]1Cc1c(-c2[nH]c3cc(F)ccc3c2C[C@@H]2C[C@H](O)CN2C(=O)[C@H](CC)NC(=O)[C@H](C)NC)[nH]c2cc(F)ccc12` [Birinapant], the half-maximal effective concentration (EC50) stood at 3500 ± 100 nM in assay [1]; 800 ± 400 nM in assay [2]; 900 nM in assay [3]; 2200 ± 1100 nM in [4]; 17400 ± 1700 nM in [9]; 18300 ± 1100 nM in [10].

For the compound `CN[C@@H](C)C(=O)N[C@H](C(=O)N1CCC[C@H]1C(=O)Nc1sc(-c2ncco2)nc1-c1ccccc1)C1CCCCC1` [CUDC-427], the 50% effective concentration (EC50) in [11] came out at 15400 ± 8970 nM; in assay [1], 272 ± 6.1 nM; in [2], 739 ± 108 nM; in [3], 20 ± 3.1 nM; in assay [4], 218 ± 48.3 nM; in assay [5], 190 ± 26.9 nM. Also, the EC50 in assay [9] came to 14800 ± 636 nM; in [13], 54.4 ± 1 nM; in assay [10], 10100 ± 1230 nM; in assay [14] it was 622 ± 232 nM. The Kd in [12] (setting [16]) came out at 44.7 ± 11.8 nM. Moreover, the “Mean, ΔTm [°C] (Supplementary Table S1)” value in [6] turned out to be 10.9 °C. The ΔTm at 40 µM in assay [6] came out at 10.8 ± 0.1 °C. The “ΔTm [°C] (Supplementary Table S1)” value in assay [6] (first column) and in assay [6] (second column) was 10.9 °C each time. Moreover, the Ki in [15] was 2.9 ± 0.3 nM.
